Data: patent US20230002756A1, “High Performance Platform for Combinatorial Genetic Screening” (THE TRUSTEES OF THE UNIVERSITY OF PENNSYLVANIA, priority 2019, published 2023)
“Also recorded” adds a separate entry of the source.

What was measured:
[1] = system: K562 cells; assay: Competition-based cellular proliferation assay; assay type: cell-based
Text: Competition-based cellular proliferation assays. Indicated AsCas12a-expressing cell lines were infected with a lentivirus (pRG212) encoding crRNA, targeting essential genes or known cancer dependencies, linked to a GFP reporter, to track successful transduction, at a multiplicity of infection (MOI) of around 0.2-0.5. The percentage of crRNA-positive (GFP-positive) cell population was monitored over time using the Guava Easycyte 10 HT instrument (Millipore). To assess the impact of a specific single-crRNA or dual-crRNA on cellular proliferation, final time point GFP % was divided by initial time point GFP % to calculate the negative selection fold-change of the crRNA-positive cell population.
To address the low knockout efficiency in mammalian cells, the AsCas12a system was subjected to three levels of optimization. In order to evaluate the knockout efficiency of the system, AsCas12a and its crRNA were expressed using a two-vector lentiviral expression strategy and conducted a competition-based cellular proliferation assay, a reliable proxy for dropout screening (FIG. 1A, 1B). crRNAs targeting known essential genes were designed, including replication protein PCNA and cyclin-dependent kinase CDK1. AsCas12a knockout efficiency was then assessed by measuring the negative selection strength of essential gene-targeting crRNAs in a 16-day time-course. […]

[2] = system: HEK293T d2GFP reporter line; assay: GFP disruption assay; assay type: cell-based, human; conditions: for gene editing activity / efficiency (GFP reporter disruption): HEK293T GFP reporter cell line
Text: GFP disruption assay. HEK293T cells were first lentivirally transduced with a destabilized GFP (d2GFP) reporter (derived from Addgene #14760). The resulting HEK293T d2GFP reporter line was then transiently transfected with indicated AsCas12a vector and a vector expressing GFP-targeting crRNA. This d2GFP HEK293T reporter line was used to evaluate the knockout efficiency of seven Addgene-available Cas12a systems (Butyrivibrio sp., Thiomicrospira sp. XS5, Moraxella bovoculi, Prevotella bryantii, Bacteroidetes oral, Lachnospiraceae bacterium, and Acidaminococcus). In addition, AsCas12a vector contained 1, 2, 4, or 6 SV40 or c-Myc NLS cloned into either the N- or C-terminus. The crRNA vector contained an expression marker for mCherry for successful transfection tracking. Cells were cultured for 3 days and subjected to flow cytometry to measure knockdown of GFP using the Guava Easycyte 10 HT instrument (Millipore). Percent GFP disruption is plotted. Two independent GFP-targeting crRNA are presented.

| Substance | knockout efficiency ([1]; crRNAs targeting essential genes PCNA and CDK1, 16-day time-course) | effect on cellular proliferation (toxicity to the cells) ([1]; non-targeting crRNAs and crRNAs targeting introns of PCNA and CDK1) | gene editing activity / efficiency (GFP reporter disruption) [2] | knockout efficiency relative to SpCas9 ([2]; in human cells) |
| --- | --- | --- | --- | --- |
| enAsCas12a: AsCas12a with E174R and S542R mutations, used with 6xNLS and dual-DR crRNA; the improved/engineered Cas12a system | enhances knockout efficiency | no obvious effect on cellular proliferation; also recorded: does not significantly affect cellular proliferation | comparable to Cas9 |  |
| AsCas12a: Acidaminococcus Cas12a, wild type RNA-programmable DNA endonuclease |  |  | high gene editing activity | approximately one third |
